Here are results for twelve molecules from ChEMBL document CHEMBL1132908, “Synthesis and activity studies of conformationally restricted alpha-ketoamide factor Xa inhibitors” (Bioorg Med Chem Lett, 2000).

One assay concerns the target Prothrombin (Homo sapiens, UniProt P00734). In words: Binding affinity for human thrombin.
The next assay deals with Coagulation factor X (Homo sapiens, UniProt P00742). In words: Inhibition of Coagulation factor X.
Coagulation factor X, sequence (P00742 41-179 limits assumed): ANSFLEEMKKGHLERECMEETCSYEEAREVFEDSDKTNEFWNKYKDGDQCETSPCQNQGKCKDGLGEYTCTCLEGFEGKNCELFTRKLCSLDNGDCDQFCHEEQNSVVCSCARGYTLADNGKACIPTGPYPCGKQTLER
Coagulation factor X, sequence (P00742 235-488 limits assumed): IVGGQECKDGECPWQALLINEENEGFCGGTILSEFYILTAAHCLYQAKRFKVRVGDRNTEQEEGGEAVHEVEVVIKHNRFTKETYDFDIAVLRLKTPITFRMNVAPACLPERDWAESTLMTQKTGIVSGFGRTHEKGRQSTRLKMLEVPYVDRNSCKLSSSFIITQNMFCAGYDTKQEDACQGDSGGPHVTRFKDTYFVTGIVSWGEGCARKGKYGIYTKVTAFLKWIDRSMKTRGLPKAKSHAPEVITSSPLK

As for `CN(CC(=O)N[C@@H](CCCCN)C(=O)C(=O)Nc1ccc(Oc2ccc(N)cc2)cc1)C(=O)c1ccccc1Sc1ccccc1C#N`, the figures for the Ki at Prothrombin and at Coagulation factor X were 68 nM and 120 nM, respectively.
For `CN(CC(=O)N[C@@H](CCCCN)C(=O)C(=O)NCCN1CCOCC1)C(=O)c1ccccc1Sc1ccccc1C#N` the same measures were 8700 nM and 200 nM.
`CNC(=O)C(=O)[C@H](CCCCN)NC(=O)CN(C)C(=O)c1ccccc1Sc1ccccc1C#N`: the values for the Ki at Prothrombin and at Coagulation factor X were 570 nM and 110 nM, respectively.
Turning to `CN(CC(=O)N[C@@H](CCCCN)C(=O)C(=O)Nc1ccc(Oc2cccc(N)c2)cc1)C(=O)c1ccccc1Sc1ccccc1C#N`, the inhibition constant (Ki) (as a rule, a dissociation constant, usually derived from enzyme kinetics or from competition with a known ligand) at Prothrombin was determined as 59 nM; on Coagulation factor X, 120 nM.
For `CN(CC(=O)N[C@@H](CCCCN)B(O)O)C(=O)c1ccccc1S(=O)(=O)c1ccccc1` the same measures were 97 nM and 5800 nM.
The matching figures for `CN(CC(=O)N[C@@H](CCCCN)C(=O)C(=O)Nc1ccccc1)C(=O)c1ccccc1Sc1ccccc1C#N`: 60 nM and 54 nM.
As to `CN(CC(=O)N[C@@H](CCCCN)C(=O)C(=O)Nc1ccc(Oc2cccnc2)cc1)C(=O)c1ccccc1Sc1ccccc1C#N`, the inhibition constant Ki on Prothrombin amounted to 50 nM; at Coagulation factor X, 60 nM.
`CN(CC(=O)N[C@@H](CCCCN)B(O)O)C(=O)c1ccccc1Sc1ccccc1C#N`: the results for the Ki at Prothrombin and on Coagulation factor X were 8.8 nM and 1.1 nM, respectively.
For `CN(CC(=O)N[C@@H](CCCCN)C(=O)C(=O)Nc1cccc(N)c1)C(=O)c1ccccc1Sc1ccccc1C#N` the same measures were 120 nM and 120 nM.
For `CN(CC(=O)N[C@@H](CCCCN)B(O)O)C(=O)c1ccccc1Cc1ccccc1` the same measures were 4.9 nM and 100 nM.
Consider `CN(CC(=O)N[C@@H](CCCCN)B(O)O)C(=O)c1ccccc1Sc1ccccc1`, for which the Ki at Prothrombin turned out to be 1.6 nM; at Coagulation factor X, 17 nM.
With `CN(CC(=O)N[C@@H](CCCCN)C(=O)C(=O)NCc1ccccn1)C(=O)c1ccccc1Sc1ccccc1C#N`, the inhibition constant Ki at Prothrombin was 7400 nM; at Coagulation factor X, 360 nM.
